Measured values: publication PMC4232510, “Identification of Functionally Important Residues of the Rat P2X4 Receptor by Alanine Scanning Mutagenesis of the Dorsal Fin and Left Flipper Domains” (PLoS ONE, 2014)
Numbering of substitutions follows the chain as printed.

Columns and labels:
[1] = target: T1, rP2X4R I209A mutant (Rattus norvegicus, UniProt P51577, I209A); assay: whole-cell patch clamp, HEK293T cells expressing mutant; type: cell-based
T1 construct: expressed in transfected cells; host or cells: HEK293T
T1 sequence (P51577 1-388 I209A): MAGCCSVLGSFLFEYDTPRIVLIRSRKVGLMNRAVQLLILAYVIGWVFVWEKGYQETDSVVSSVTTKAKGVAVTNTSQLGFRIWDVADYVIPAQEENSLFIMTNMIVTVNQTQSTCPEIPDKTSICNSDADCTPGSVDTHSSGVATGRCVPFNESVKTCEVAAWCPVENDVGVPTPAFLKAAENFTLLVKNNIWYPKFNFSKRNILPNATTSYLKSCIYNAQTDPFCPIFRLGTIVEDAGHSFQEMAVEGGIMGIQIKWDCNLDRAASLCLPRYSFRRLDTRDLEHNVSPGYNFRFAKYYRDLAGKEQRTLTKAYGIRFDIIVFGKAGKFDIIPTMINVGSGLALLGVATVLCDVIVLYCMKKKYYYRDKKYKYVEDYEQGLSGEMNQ

[2] = target: T2, rP2X4R S289A mutant (Rattus norvegicus, UniProt P51577, S289A); assay: as above; type: cell-based
T2 construct: expressed in transfected cells; host or cells: HEK293T
T2 sequence (P51577 1-388 S289A): T1 sequence (P51577 1-388 I209A) with A209I, S289A

[3] = 100 µM ATP 60 s, biexponential fit
[4] = contribution of τdes2, 100 µM ATP 60 s
[5] = decay after removal of 1 or 3 µM ATP, 3 µM IVM
[6] = naïve receptors, 2–5 s application
[7] = 3 µM IVM 4-6 min vs IVM-untreated

SMILES	τdes1 [1, 3]	τdes2 [1, 3]	Imax ([1]; 100–1000 µM ATP)	Imax+IVM ([1]; ATP after 3 µM IVM 4-6 min)	A2 /(A1+A2) [1, 4]	τoff +IVM [1, 5]	EC50 [1, 6]	τdes ([1]; weighted, 100 µM ATP 60 s)	τdes1 [2, 3]	τdes2 [2, 3]	Imax ([2]; 100–1000 µM ATP)	Imax+IVM ([2]; ATP after 3 µM IVM 4-6 min)	A2 /(A1+A2) [2, 4]	τoff +IVM [2, 5]	EC50 [2, 6]	τdes ([2]; weighted, 100 µM ATP 60 s)	Fold incr. Imax [1, 7]	Fold incr. Imax [2, 7]
Nc1ncnc2c1ncn2[C@@H]1O[C@H](COP(=O)(O)OP(=O)(O)OP(=O)(O)O)[C@@H](O)[C@H]1O [ATP]	2.1 ± 0.8 s	9.3 ± 2.6 s	1.9 ± 0.4 nA	4.1 ± 0.8 nA	70 ± 2%	22 ± 3.0 s	4.3 ± 2.1 µM	6.3 ± 0.2 s	0.9 ± 0.3 s	11.3 ± 0.6 s	1.4 ± 0.2 nA	4.5 ± 1.1 nA	56 ± 7%	15 ± 1.1 s	3.6 ± 1.9 µM	6.8 ± 1.0 s		
CC[C@H](C)[C@H]1O[C@]2(CC[C@@H]1C)C[C@@H]1C[C@@H](C/C=C(\C)[C@@H](O[C@H]3C[C@H](OC)[C@@H](O[C@H]4C[C@H](OC)[C@@H](O)[C@H](C)O4)[C@H](C)O3)[C@@H](C)/C=C/C=C3\CO[C@@H]4[C@H](O)C(C)=C[C@@H](C(=O)O1)[C@]34O)O2 [IVM, ivermectin]																	2.1 ± 0.3 fold	3.2 ± 0.2 fold
